Assay results as given in patent publication US8217055B2, “Pyrido-pyrazine derivatives useful as herbicidal compounds” (Syngenta Crop Protection LLC, priority 2006, dated 2012).

Key:
Format in all cases: in vivo
Digitaria sanguinalis = assay: Example B3 herbicidal action, post-emergence, small pots in glasshouse (score 10=total damage to plant, 0=no damage to plant); conditions: Application post-emergence, 1000 g/ha, evaluated after 13 days
Description: (§1) Seeds of a variety of test species were sown in sterilised compost in small pots. After cultivation for seven days (post-emergence) in controlled conditions in the glasshouse (at 24/16° C., day/night; 14 hours light; 65% humidity) the plants were sprayed with 1 mg of the active ingredient, formulated in 2.5 ml acetone/water (50:50) solution, which is equivalent to 1000 g/ha. Once the foliage was dry, the pots were kept in the glasshouse (at 24/16° C., day/night; 14 hours light; 65% humidity), and were watered twice daily. After 13 days the test was evaluated (10=total damage to plant, 0=no damage to plant).

Chenopodium album = assay: as above; conditions: Application post-emergence, 1000 g/ha, evaluated after 13 days
Description: as §1

Amaranthus retroflexus [1] = assay: as above; conditions: Application post-emergence, 1000 g/ha, evaluated after 13 days
Description: as §1

Alopecurus myosuroides = assay: as above; conditions: Application post-emergence, 1000 g/ha, evaluated after 13 days
Description: as §1

Nasturtium officinale = assay: Example B1 herbicidal action, post-emergence, seed trays in climatic chamber (score 10=total damage to plant, 0=no damage to plant); conditions: Application post-emergence, 1000 g/ha, evaluated after 9 days
Description: (§2) Seeds of a variety of test species were sown in sterilised standard soil in seed trays each having 96 cells. After cultivation for 8 to 9 days cultivation (post-emergence) under controlled conditions in a climatic chamber (cultivation at 23/17° C., day/night; 13 hours light; 50-60% humidity), the plants were treated with an aqueous spray solution of 1000 mg/l of the active ingredient dissolved in 10% DMSO (dimethyl sulfoxide, CAS RN 67-68-5) as a solvent, equivalent to 1000 g/ha. The plants were grown in the climatic chamber after application at (24/19° C., day/night; 13 hours light; 50-60% humidity) and watered twice daily. After 9 days until the test was evaluated (10=total damage to plant, 0=no damage to plant)

Amaranthus retroflexus [2] = assay: as above; conditions: Application post-emergence, 1000 g/ha, evaluated after 9 days
Description: as §2

Solanum nigrum = assay: as above; conditions: Application post-emergence, 1000 g/ha, evaluated after 9 days
Description: as §2

Stellaria media = assay: as above; conditions: Application post-emergence, 1000 g/ha, evaluated after 9 days
Description: as §2

[3] = test system: test plants (a variety of test species); assay: Example B2 herbicidal action, post-emergence, pots in glasshouse, evaluated after 13 days (score 10=total damage to plant; 0=no damage to plant); conditions: same protocol as Example B2 (post-emergence, evaluated after 13 days)
Description: Seeds of a variety of test species were sown in standard soil in pots. After 8 days cultivation (post-emergence) under controlled conditions in a glasshouse (at 24/16° C., day/night; 14 hours light; 65% humidity), the plants were sprayed with an aqueous spray solution derived from the formulation of the technical active ingredient in acetone/water (50:50) solution containing 0.5% Tween 20 (polyoxyethelyene sorbitan monolaurate, CAS RN 9005-64-5). The test plants were then grown in a glasshouse under controlled conditions in a glasshouse (at 24/16° C., day/night; 14 hours light; 65% humidity) and watered twice daily. After 13 days, the test was evaluated (10=total damage to plant; 0=no damage to plant).

test plants = assay: Example B1 herbicidal action, post-emergence, all test plants together; conditions: same protocol as Example B1 (post-emergence, 1000 g/ha, 9 days)
Description: as §2

Q: With `CC(C)C(=O)Oc1c(-c2cccc(C(F)(F)F)c2Cl)c(=O)n(CC(F)F)c2nccnc12` [A4] as the molecule, how does the “DIGSA (damage to plant)” value (Digitaria sanguinalis) read?
A: The value was 7.

Q: And the “CHEAL (damage to plant)” value (Chenopodium album)?
A: The value was 10.

Q: And the “AMARE (damage to plant)” value (Amaranthus retroflexus [1])?
A: The value was 10.

Q: What about the “ALOMY (damage to plant)” value (Alopecurus myosuroides) of the same molecule?
A: The value was 0.

Q: With `Cc1ccc(Cl)c(-c2c(OC(=O)C(C)(C)C)c3nccnc3n(CC(F)F)c2=O)c1F` [A5] as the molecule, how does the “NAAOF (damage to plant)” value (Nasturtium officinale) read?
A: Its value is 5.

Q: And the “AMARE (damage to plant)” value (Amaranthus retroflexus [2])?
A: The value was 4.

Q: What about the “SOLNI (damage to plant)” value (Solanum nigrum) of the same molecule?
A: The value was 2.

Q: What about the “STEME (damage to plant)” value (Stellaria media) of the same molecule?
A: The value was 7.

Q: With `Cc1ccc(Cl)c(-c2c(OC(=O)C(C)C)c3nccnc3n(CC(F)F)c2=O)c1F` [A6] as the molecule, how does the “NAAOF (damage to plant)” value (Nasturtium officinale) read?
A: The value was 7.

Q: And the “AMARE (damage to plant)” value (Amaranthus retroflexus [2])?
A: Its value is 5.

Q: What about the “SOLNI (damage to plant)” value (Solanum nigrum) of the same molecule?
A: The value was 0.

Q: What about the “STEME (damage to plant)” value (Stellaria media) of the same molecule?
A: Its value is 7.

Q: How did the “NAAOF (damage to plant)” value (Nasturtium officinale) turn out when `CC(C)C(=O)Oc1c(-c2cc(C(F)(F)F)ccc2Cl)c(=O)n(CC(F)F)c2nccnc12` [A7] was run?
A: The value was 7.

Q: What about the “AMARE (damage to plant)” value (Amaranthus retroflexus [2]) of the same molecule?
A: The value was 4.

Q: And the “SOLNI (damage to plant)” value (Solanum nigrum)?
A: The value was 5.

Q: What about the “STEME (damage to plant)” value (Stellaria media) of the same molecule?
A: The value was 8.

Q: How did the “NAAOF (damage to plant)” value (Nasturtium officinale) turn out when `CC(C)(C)C(=O)Oc1c(-c2cc(C(F)(F)F)ccc2Cl)c(=O)n(CC(F)F)c2nccnc12` [A8] was run?
A: Its value is 7.

Q: What about the “AMARE (damage to plant)” value (Amaranthus retroflexus [2]) of the same molecule?
A: Its value is 6.

Q: What about the “SOLNI (damage to plant)” value (Solanum nigrum) of the same molecule?
A: The value was 6.

Q: And the “STEME (damage to plant)” value (Stellaria media)?
A: The value was 7.

Q: How did the “damage to the test plants” value [3] turn out when `Cc1cnc2c(n1)c(OC(=O)C(C)(C)C)c(-c1c(F)ccc(F)c1Cl)c(=O)n2CC(F)F` [A29] was run?
A: The value was “no damage or very little damage”.

Q: With `Cc1cnc2c(OC(=O)C(C)(C)C)c(-c3c(F)ccc(F)c3Cl)c(=O)n(CC(F)F)c2n1` [A30] as the molecule, how does the “damage to the test plants” value [3] read?
A: Its value is “no damage or very little damage”.

Q: With `CC(C)(C)C(=O)Oc1c(-c2c(F)ccc(F)c2Cl)c(=O)n(CC(F)F)c2ncc(-c3ccccc3)nc12` [A31] as the molecule, how does the “damage to the test plants” value [3] read?
A: The value was “no damage or very little damage”.

Q: Which results are given for `CC(C)(C)C(=O)Oc1c(-c2ccccc2I)c(=O)n(CC(F)F)c2nccnc12` [A36]?
A: DIGSA (damage to plant) (Digitaria sanguinalis): 5; CHEAL (damage to plant) (Chenopodium album): 10; AMARE (damage to plant) (Amaranthus retroflexus [1]): 10; ALOMY (damage to plant) (Alopecurus myosuroides): 8

Q: Which results are given for `O=c1c(-c2cccc(C(F)(F)F)c2Cl)c(O)c2nccnc2n1CC(F)F` [B1]?
A: NAAOF (damage to plant) (Nasturtium officinale): 6; AMARE (damage to plant) (Amaranthus retroflexus [2]): 0; SOLNI (damage to plant) (Solanum nigrum): 6; STEME (damage to plant) (Stellaria media): 5

Q: `O=c1c(-c2c(F)ccc(F)c2Cl)c(O)c2nccnc2n1CC(F)F` [B2, 7-(2-chloro-3,6-difluoro-phenyl)-5-(2,2-difluoro-ethyl)-8-hydroxy-5H-pyrido[2,3-b]pyrazin-6-one] was tested. Which “NAAOF (damage to plant)” value (Nasturtium officinale) did it give?
A: Its value is 8.

Q: What about the “AMARE (damage to plant)” value (Amaranthus retroflexus [2]) of the same molecule?
A: Its value is 6.

Q: What about the “SOLNI (damage to plant)” value (Solanum nigrum) of the same molecule?
A: The value was 5.

Q: What about the “STEME (damage to plant)” value (Stellaria media) of the same molecule?
A: The value was 8.

Q: Which “damage to the test plants” value (test plants) does the source give for `CC(C)(C)C(=O)Oc1c(-c2ccccc2OC(F)(F)F)c(=O)n(CCCCCl)c2nccnc12` [C1] here?
A: The value was “no damage or very little damage”.

Q: How did the “NAAOF (damage to plant)” value (Nasturtium officinale) turn out when `CC(C)(C)C(=O)Oc1c(-c2ccccc2OC(F)(F)F)c(=O)n(CCC(F)(F)F)c2nccnc12` [C2] was run?
A: Its value is 0.

Q: What about the “AMARE (damage to plant)” value (Amaranthus retroflexus [2]) of the same molecule?
A: Its value is 0.

Q: What about the “SOLNI (damage to plant)” value (Solanum nigrum) of the same molecule?
A: Its value is 4.

Q: And the “STEME (damage to plant)” value (Stellaria media)?
A: Its value is 0.

Q: `CC(C)(C)C(=O)Oc1c(-c2ccccc2OC(F)(F)F)c(=O)n(CCC(F)(F)C(F)(F)F)c2nccnc12` [C3] was tested. Which “damage to the test plants” value (test plants) did it give?
A: Its value is “no damage or very little damage”.

Q: Which results are given for `CC(C)(C)C(=O)Oc1c(-c2c(F)ccc(F)c2Cl)c(=O)n(CCCCCl)c2nccnc12` [C4]?
A: NAAOF (damage to plant) (Nasturtium officinale): 0; AMARE (damage to plant) (Amaranthus retroflexus [2]): 0; SOLNI (damage to plant) (Solanum nigrum): 4; STEME (damage to plant) (Stellaria media): 1

Q: Which “damage to the test plants” value (test plants) does the source give for `CC(C)(C)C(=O)Oc1c(-c2c(F)ccc(F)c2Cl)c(=O)n(CCCCl)c2nccnc12` [C5] here?
A: The value was “no damage or very little damage”.

Q: Which results are given for `CC(C)(C)C(=O)Oc1c(-c2c(F)ccc(F)c2Cl)c(=O)n(CCC(F)(F)F)c2nccnc12` [C6]?
A: NAAOF (damage to plant) (Nasturtium officinale): 0; AMARE (damage to plant) (Amaranthus retroflexus [2]): 0; SOLNI (damage to plant) (Solanum nigrum): 1; STEME (damage to plant) (Stellaria media): 3

Q: How did the “NAAOF (damage to plant)” value (Nasturtium officinale) turn out when `CC(C)(C)C(=O)Oc1c(-c2c(F)ccc(F)c2Cl)c(=O)n(CCC(F)(F)C(F)(F)F)c2nccnc12` [C7] was run?
A: The value was 0.

Q: And the “AMARE (damage to plant)” value (Amaranthus retroflexus [2])?
A: Its value is 0.

Q: And the “SOLNI (damage to plant)” value (Solanum nigrum)?
A: Its value is 3.

Q: And the “STEME (damage to plant)” value (Stellaria media)?
A: The value was 0.
